From patent US12156862B2, “Medicaments for the treatment of vasoconstriction related diseases or disorders” (Sulfateq B.V., priority 2017, dated 2024)

Legend:
[1] = molecular target: T1, human α1 adrenoceptor subtype B (Homo sapiens, UniProt P35368); assay: Phenylephrine-induced intracellular calcium (FLIPR Calcium 6) in CHO cells, α1B; assay type: cell-based
T1 construct: expressed in transfected cells; host or cells: CHO-K1
T1 sequence (P35368 1-520): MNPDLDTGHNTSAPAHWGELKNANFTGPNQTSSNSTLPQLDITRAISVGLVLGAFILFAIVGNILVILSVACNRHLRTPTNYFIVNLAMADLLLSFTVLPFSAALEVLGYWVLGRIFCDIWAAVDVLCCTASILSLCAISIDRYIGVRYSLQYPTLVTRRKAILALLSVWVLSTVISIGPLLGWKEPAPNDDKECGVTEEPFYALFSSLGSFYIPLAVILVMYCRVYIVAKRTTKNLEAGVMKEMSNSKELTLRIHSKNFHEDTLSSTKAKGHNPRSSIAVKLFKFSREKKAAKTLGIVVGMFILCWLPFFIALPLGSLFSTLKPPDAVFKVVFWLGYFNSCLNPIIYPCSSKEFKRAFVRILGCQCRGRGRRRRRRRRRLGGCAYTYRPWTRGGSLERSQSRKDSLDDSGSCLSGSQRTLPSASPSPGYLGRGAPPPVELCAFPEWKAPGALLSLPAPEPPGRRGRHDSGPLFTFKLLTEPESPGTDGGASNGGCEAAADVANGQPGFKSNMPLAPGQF
Protocol: CHO-K1 cells were stably transfected with a plasmid containing human al-AR subtypes A, B and D in separate cell lines in DMEM-F12 medium with 10% FBS, 1% penicillin-streptomycin and 200 μg/mL Geneticin (G418, Invitrogen, Carlsbad, CA).
On the next day, CHO cells were treated with either vehicle (0.1% DMSO) or SUL-121 enantiomers for 30 min at 37° C. and stimulated with a 3-fold dilution series of PE (20 μM-100 pM). [Ca^2], was measured using the fluorescent FLIPR Calcium 6 assay kit (Molecular Devices) in immortalized CHO cells stably expressing the α1 adrenoceptor.
Initially, calcium responses induced by non-cumulative concentration series of phenylephrine were investigated using fluorescent measurements in α1A adrenoceptor-overexpressing CHO cells treated with SUL-150 and SUL-151 (FIG. 4). Fluorescent measurement data was processed and analyzed in SoftMax Pro 7 and expressed as % of baseline AUC with a 3-fold multiplier using an average of first 10 measurement points as baseline.

α1 adrenoceptor = assay: Methoxamine-induced constriction of isolated porcine intrarenal arteries
Protocol: (§1) Porcine kidneys were obtained from a local slaughterhouse (Kroon Vlees, Gotenburgweg 30, 9723 TM Groningen. The Netherlands) and transported on ice in normal physiological Krebs buffer containing 120 mM NaCl, 6 mM KCl, 2.5 mM CaCl2×2H2O, 1.2 mM MgCl2×6H2O, 1.2 mM NaH2PO4×H2O, 25 mM NaHCO3 and 11.4 mM D-(+)-Glucose monohydrate (all ingredients were purchased from Merck) in ultrapure water.
(§2) The renal artery tree was dissected from the kidney, cleaned of surrounding connective tissue and cut into equally-sized ring segments (2 mm in length). In some rings, endothelium denudation was performed by gentle rubbing of the intimal surface with a paper clip. Rings were mounted in organ baths as described previously (Buikema et al., 2000). Arterial rings were washed thoroughly by replacing Krebs buffer and allowed to equilibrate for a period of 60 min under 1.4 g of resting tension before they were assessed for viability by inducing 2 subsequent constrictions with KCl (60 mM). […] After washout and stabilization, rings were treated for 30 minutes by incubation with vehicle (0.1% DMSO), SUL-121, SUL-150 or SUL-151, followed by subsequent incubation with cumulative doses of phenylephrine.
Additionally, the effects of SUL-150 were investigated on stimulation with methoxamine, which is an alternative α1 adrenoceptor agonist.

TP receptors = molecular target: T2, TP receptors (Homo sapiens, UniProt P21731); assay: U46619-induced intracellular calcium transients in HeLa cells; assay type: cell-based
T2 construct: HeLa cells endogenously expressing histamine and TP receptors; endogenous in cells; host or cells: HeLa
T2 sequence (P21731 1-343): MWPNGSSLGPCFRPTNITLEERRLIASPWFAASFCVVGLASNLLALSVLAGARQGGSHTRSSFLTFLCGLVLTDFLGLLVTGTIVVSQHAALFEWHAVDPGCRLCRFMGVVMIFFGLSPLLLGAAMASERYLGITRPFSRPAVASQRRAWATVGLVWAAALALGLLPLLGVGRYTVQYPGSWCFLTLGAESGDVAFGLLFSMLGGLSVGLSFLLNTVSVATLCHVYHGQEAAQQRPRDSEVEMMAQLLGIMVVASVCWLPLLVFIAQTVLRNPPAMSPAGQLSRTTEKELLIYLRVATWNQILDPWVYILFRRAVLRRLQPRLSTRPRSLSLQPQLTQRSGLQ
Protocol: (§3) HeLa cells endogenously expressing histamine and TP receptors were grown in DMEM-F12 medium enriched with 10% FBS and 1% penicillin-streptomycin. Cells were kept in a tissue culture incubator at 37° C. in […] atmosphere and grown in 75 cm^2 non-treated cell culture flasks. Plating was performed 24 hours before measurement on black transparent-bottom 96-well plates at 20,000 cells per well density.
(§4) To confirm specificity of SUL-150 for the α1 adrenoceptor additionally histamine and U46619 induced calcium transients were studied in HeLa cells endogenously expressing human histamine H1 receptor.

[2] = molecular target: T3, human histamine H1 receptor (Homo sapiens, UniProt P35367); assay: Histamine-induced intracellular calcium transients in HeLa cells; assay type: cell-based
T3 construct: HeLa cells endogenously expressing human histamine H1 receptor; endogenous in cells; host or cells: HeLa
Protocol: as §3, §4

thromboxane receptors = molecular target: T4, thromboxane receptors (Sus scrofa, UniProt A0A287A102); assay: U46619-induced constriction of isolated porcine intrarenal arteries; details: for logEC50 of U46619-induced constriction responses: Porcine renalis
T4 construct: from tissue; host or cells: porcine intrarenal artery rings
Protocol: as §1, §2
To gain insight into receptor specificity of SUL-150, the effects of SUL-150 on histamine and U46619 (a synthetic thromboxane agonist) induced constrictions were investigated (FIG. 2).

[3] = 10 μM SUL-150, calcium transients
[4] = 30 μM SUL-150, calcium transients
[5] = 100 μM SUL-150, calcium transients

T4 sequence (A0A287A102 1-343): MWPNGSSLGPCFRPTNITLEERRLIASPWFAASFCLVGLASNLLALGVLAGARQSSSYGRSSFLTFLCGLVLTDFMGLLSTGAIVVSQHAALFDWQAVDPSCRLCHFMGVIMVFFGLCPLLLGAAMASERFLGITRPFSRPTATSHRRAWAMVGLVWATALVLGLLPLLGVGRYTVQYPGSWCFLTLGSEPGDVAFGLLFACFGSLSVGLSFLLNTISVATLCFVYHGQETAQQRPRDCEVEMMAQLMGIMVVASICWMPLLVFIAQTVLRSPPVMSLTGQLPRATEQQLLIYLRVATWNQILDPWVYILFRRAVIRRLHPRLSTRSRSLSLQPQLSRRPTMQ
T3 sequence (P35367 whole entry): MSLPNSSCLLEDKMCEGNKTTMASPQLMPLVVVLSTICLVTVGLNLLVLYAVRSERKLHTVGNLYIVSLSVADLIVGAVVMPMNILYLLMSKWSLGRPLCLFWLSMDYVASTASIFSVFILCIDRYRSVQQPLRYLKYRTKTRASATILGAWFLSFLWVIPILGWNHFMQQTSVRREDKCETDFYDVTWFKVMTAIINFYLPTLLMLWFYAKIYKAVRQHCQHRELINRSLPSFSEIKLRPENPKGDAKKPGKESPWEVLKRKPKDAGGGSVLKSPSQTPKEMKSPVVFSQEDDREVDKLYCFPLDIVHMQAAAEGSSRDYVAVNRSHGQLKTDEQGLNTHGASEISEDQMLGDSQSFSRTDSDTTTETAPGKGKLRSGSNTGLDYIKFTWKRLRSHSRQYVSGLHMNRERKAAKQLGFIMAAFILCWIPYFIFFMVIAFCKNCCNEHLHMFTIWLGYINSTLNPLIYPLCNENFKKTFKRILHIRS

Cc1c(C)c2c(c(C)c1O)CC[C@](C)(C(=O)N1CCNCC1)O2 [SUL-150, (R)(6-hydroxy-2,5,7,8-tetramethylchroman-2-yl)(piperazin-1-yl)methanone]
logEC50 of phenylephrine-induced calcium influx, α1B ([1]; 10 μM test compound): −7.51 ± 0.08
logEC50 of phenylephrine-induced calcium influx, α1B ([1]; 30 μM test compound): −7.24 ± 0.07
logEC50 of phenylephrine-induced calcium influx, α1B ([1]; 100 μM test compound): −6.72 ± 0.08
effect on PE-induced calcium transients, α1 adrenoceptor subtype B ([1]; in words): shifted dose response curves rightwards
effect on dose response curves to methoxamine (α1 adrenoceptor; SUL-150 pre-treatment (30 μM and 100 μM), intact endothelium): shifted rightward
effect on methoxamine induced constriction after removal of the endothelium (α1 adrenoceptor; endothelium-denuded rings): did not abrogate the effects of SUL-150
logEC50 of U46619-induced response, HeLa cells (TP receptors; [3]): −6.83 ± 0.10
logEC50 of U46619-induced response, HeLa cells (TP receptors; [4]): −6.78 ± 0.18
logEC50 of U46619-induced response, HeLa cells (TP receptors; [5]): −6.75 ± 0.10
effect on U46619 induced calcium transients (TP receptors; in words): did not significantly affect
logEC50 of histamine-induced response, HeLa cells [2, 3]: −6.45 ± 0.05
logEC50 of histamine-induced response, HeLa cells [2, 4]: −6.39 ± 0.05
logEC50 of histamine-induced response, HeLa cells [2, 5]: −6.29 ± 0.06
effect on histamine induced calcium transients ([2]; in words): did not significantly affect
logEC50 of U46619-induced constriction responses (thromboxane receptors; 30 μM SUL-150): −7.58 ± 0.06
logEC50 of U46619-induced constriction responses (thromboxane receptors; 100 μM SUL-150): −7.50 ± 0.04
shift in EC50 of U46619-induced constrictions (thromboxane receptors; 100 μM SUL-150, in words): small effect size
